Data: patent US7888349B2, “Piperazine, [1,4]Diazepane, [1,4]Diazocane, and [1,5]Diazocane fused imidazo ring compounds” (3M Innovative Properties Company, priority 2003, dated 2011)
Counter-ions that a name gives are not always drawn.

Compound	melting point
CS(=O)(=O)N1CCn2c(nc3c(N)nc4ccccc4c32)C1 (as salt: trifluoroacetate) [Example 5, 9-(Methylsulfonyl)-8,9,10,11-tetrahydropyrazino[1′,2′:1,2]imidazo[4,5-c]quinolin-6-amine trifluoroacetate]	242 to 243 °C
CS(=O)(=O)N1CCCn2c(nc3c(N)nc4ccccc4c32)C1 (as salt: trifluoroacetate) [Example 7, 9-(Methylsulfonyl)-9,10,11,12-tetrahydro-8H-[1,4]diazepino[1′,2′:1,2]imidazo[4,5-c]quinolin-6-amine trifluoroacetate]	250 to 250.9 °C
CC(C)(C)[Si](C)(C)OC1CN(S(C)(=O)=O)Cc2nc3c(N)nc4ccccc4c3n2C1 (centres unmarked) [Example 1, 11-{[tert-Butyl(dimethyl)silyl]oxy}-9-(methylsulfonyl)-9,10,11,12-tetrahydro-8H-[1,4]diazepino[1′,2′:1,2]imidazo[4,5-c]quinolin-6-amine]	256 to 258 °C
CS(=O)(=O)N1Cc2nc3c(N)nc4ccccc4c3n2CC(O)C1 (centres unmarked) [Example 2, 6-Amino-9-(methylsulfonyl)-9,10,11,12-tetrahydro-8H-[1,4]diazepino[1′,2′:1,2]imidazo[4,5-c]quinolin-11-ol]	282 to 283 °C
CC1(C)Cn2c(nc3c(N)nc4ccccc4c32)CN1S(C)(=O)=O [Example 3, 10,10-Dimethyl-9-(methylsulfonyl)-8,9,10,11-tetrahydropyrazino[1′,2′:1,2]imidazo[4,5-c]quinolin-6-amine]	227 to 228 °C
CC(C)(C)OC(=O)N1CCn2c(nc3c(N)nc4ccccc4c32)C1 [Example 4, tert-Butyl 6-amino-10,11-dihydropyrazino[1′,2′:1,2]imidazo[4,5-c]quinoline-9(8H)-carboxylate]	207 °C
CC(C)(C)OC(=O)N1CCCn2c(nc3c(N)nc4ccccc4c32)C1 [Example 6, tert-Butyl 6-amino-11,12-dihydro-8H-[1,4]diazepino[1′,2′:1,2]imidazo[4,5-c]quinoline-9(10H)-carboxylate]	213 °C
CS(=O)(=O)N1CCCn2c(nc3c(N)nc4ccccc4c32)C1 [Example 8, 9-(Methylsulfonyl)-9,10,11,12-tetrahydro-8H-[1,4]diazepino[1′,2′:1,2]imidazo[4,5-c]quinolin-6-amine]	280 °C
CS(=O)(=O)N1CCCn2c(nc3c(N)nc4c(c32)CCCC4)C1 [Example 363, 9-(Methylsulfonyl)-2,3,4,8,9,10,11,12-octahydro-1H-[1,4]diazepino[1′,2′:1,2]imidazo[4,5c]quinolin-6-amine]	270 to 272 °C
CS(=O)(=O)N1CCCn2c(nc3c(N)nc4cc(Br)ccc4c32)C1 [Example 365, 3-Bromo-9-(methylsulfonyl)-9,10,11,12-tetrahydro-8H-[1,4]diazepino[1′,2′:1,2]imidazo[4,5-c]quinolin-6-amine]	303 °C
CS(=O)(=O)N1CCCn2c(nc3c(N)nc4cc(-c5cccnc5)ccc4c32)C1 [Example 366, 9-(Methylsulfonyl)-3-pyridin-3-yl-9,10,11,12-tetrahydro-8H-[1,4]diazepino[1′,2′:1,2]imidazo[4,5-c]quinolin-6-amine]	302 °C
CS(=O)(=O)N1CCn2c(nc3c(N)nc4cc(Br)ccc4c32)C1 [Example 367, 3-Bromo-9-(methylsulfonyl)-8,9,10,11-tetrahydropyrazino[1′,2′:1,2]imidazo[4,5-c]quinolin-6-amine]	315 to 317 °C
CS(=O)(=O)N1CCn2c(nc3c(N)nc4cc(OCc5ccccc5)ccc4c32)C1 [Example 368, 3-(Benzyloxy)-9-(methylsulfonyl)-8,9,10,11-tetrahydropyrazino[1′,2′:1,2]imidazo[4,5-c]quinolin-6-amine]	266 to 268 °C
CS(=O)(=O)N1CCCn2c(nc3c(N)nc4cc(OCc5ccccc5)ccc4c32)C1 [Example 369, 3-(Benzyloxy)-9-(methylsulfonyl)-9,10,11,12-tetrahydro-8H-[1,4]diazepino[1′,2′:1,2]imidazo[4,5-c]quinolin-6-amine]	235 to 236 °C
